# Laboratory results from ChEMBL document CHEMBL4387712, “Development of the binding molecules for the RNA higher-order structures based on the guanine-recognition by the G-clamp” (Bioorg Med Chem Lett, 2019).
# Activity calls are given as the source filed them. The calls are words filed in the database; no cut-off is given here.
# How the values were obtained:
# [1] = Binding affinity to sh(-GUG-) RNA (unknown origin) assessed as hypochromic effect at 10 uM by UV-vis spectral analysis
# [2] = Binding affinity to stem-duplex RNA (unknown origin) at 10 nM by fluorescence spectra analysis
# [3] = Binding affinity to mismatch G2 RNA mutant (unknown origin) assessed as increase in fluorescence intensity at 10 nM by fluorescence spectra analysis
# [4] = Binding affinity to sh(-CUA-) RNA (unknown origin) assessed as change in UV spectrum at 10 uM by UV-vis spectral analysis
# [5] = Binding affinity to overhang G2 RNA mutant (unknown origin) assessed as increase in fluorescence intensity at 10 nM by fluorescence spectra analysis
# [6] = Binding affinity to sh(-GUG-) RNA (unknown origin) by fluorescence titration method
# [7] = Binding affinity to sh(-GUA-) RNA (unknown origin) assessed as increase in fluorescence at 10 nM by fluorescence spectra analysis relative to control
# [8] = Binding affinity to sh(-GUG-) RNA (unknown origin) assessed as bathochromic effect at 10 uM by UV-vis spectral analysis
# [9] = Binding affinity to hairpin G2 RNA mutant (unknown origin) assessed as increase in fluorescence intensity at 10 nM by fluorescence spectra analysis
# [10] = Binding affinity to sh(-CUA-) RNA (unknown origin) assessed as increase in fluorescence at 10 nM by fluorescence spectra analysis
# [11] = Binding affinity to sh(-GUG-) RNA (unknown origin) assessed as increase in fluorescence at 10 nM by fluorescence spectra analysis relative to control
# [12] = Binding affinity to sh(-CUA-) RNA (unknown origin) at 10 uM by circular dichroism
# [13] = Binding affinity to sh(-GUA-) RNA (unknown origin) by fluorescence titration method
# [14] = Binding affinity to G0 RNA (unknown origin) at 10 nM by fluorescence spectra analysis
# [15] = Binding affinity to stem-loop RNA (unknown origin) at 10 nM by fluorescence spectra analysis
# [16] = Binding affinity to sh(-GUG-) RNA (unknown origin) at 10 uM by circular dichroism
# [17] = Binding affinity to sh(-CUG-) RNA (unknown origin) by fluorescence titration method
# [18] = Binding affinity to sh(-CUG-) RNA (unknown origin) assessed as increase in fluorescence at 10 nM by fluorescence spectra analysis relative to control
# [19] = Binding affinity to wild-type full length pre-miRNA-17 (unknown origin) assessed as increase in fluorescence intensity at 10 nM by fluorescence spectra analysis
# [20] = Binding affinity to ssRNA-5 mer (unknown origin) assessed as increase in fluorescence at 10 nM by fluorescence spectra analysis
# [21] = Binding affinity to sh(-GUG-) RNA (unknown origin) at 10 nM by fluorescence spectra analysis
# [22] = Binding affinity to sh(-CUG-) RNA (unknown origin) at 10 nM by fluorescence spectra analysis
# [23] = Binding affinity to sh(-CUA-) RNA (unknown origin) at 10 nM by fluorescence spectra analysis
# [24] = Binding affinity to sh(-GUA-) RNA (unknown origin) at 10 nM by fluorescence spectra analysis
# [25] = Binding affinity to ssRNA-5 mer (unknown origin) at 10 nM by fluorescence spectra analysis
structure (smiles),measurement,setting,value
CN(CCCNC(=O)Cn1cc2c(nc1=O)Nc1c(OCCN)cccc1O2)CCCNC(=O)Cn1cc2c(nc1=O)Nc1c(OCCN)cccc1O2,Activity,[1],Active
same,Activity,[2],Active
same,Activity,[3],Active
same,Activity,[4],inactive
same,Activity,[5],Active
same,Kd,[6],9 nM
same,fold change (FC),[7],2.6
same,Activity,[8],Active
same,Activity,[9],Active
same,Activity,[10],inactive
same,Activity,[11],Active
same,fold change (FC),[11],7
same,Activity,[12],inactive
same,Kd,[13],103 nM
same,Activity,[14],Active
same,Activity,[15],Active
same,Activity,[16],Active
same,Kd,[17],27 nM
same,fold change (FC),[18],4.1
same,Activity,[19],Active
same,Activity,[20],inactive
CN(C)CCCNC(=O)Cn1cc2c(nc1=O)Nc1c(OCCN)cccc1O2,Activity,[21],Active
same,Activity,[22],Active
same,Activity,[23],inactive
same,Kd,[13],202 nM
same,Activity,[24],inactive
same,Kd,[17],155 nM
same,Activity,[25],inactive
